Tested on: 299254-011-R-J1-PDC complex spheroid viability
Assay: Anticancer human tumor 299254-011-R-J1-PDC patient-derived melanoma cell line growth inhibition [POLQ]
Settings: for IC50: curve of first compound; for viability, T/C: stronger effect = lower value
Description: Multicellular complex tumor spheroid response to Polymerase (POL) inhibitors (novobiocin, ART-558, RP6685) in combination with a variety of drugs and investigational agents in selected tumor cell lines
The POL inhibitors (novobiocin, ART-558, and RP6685) were evaluated both individually and in combination with standard of care and investigational anticancer small molecules within a complex spheroid model of solid tumors. . Complex spheroids include a stromal component modeled by human endothelial cells (HUVEC) and fibroblasts modeled by human mesenchymal stem cells (MSCs). The concentration ranges selected for each drug and investigational agent were based upon clinically achievable concentrations if the clinical Cmax of the agent was known.
Compounds. The drugs and investigational agents: novobiocin (NSC847541), ART-558 (NSC835418), RP-6685 (NSC848927), peposertib (NSC802822), ceralasertib (NSC780249), elimusertib (NSC800525), camonsertib (NSC841442), AZD-1390 (NSC803789), olaparib (NSC753686), talazoparib (NSC767125), rucaparib (NSC756644), sotorasib (NSC818433), MRTX-1133 (NSC836407), SN-38 (NSC673596), topotecan (NSC609699), epotoside (NSC141540), doxorubicin (NSC123127), gemcitabine (NSC613327), 5-fluorouracil (NSC19893), paclitaxel (NSC125973), vemurafenib (NSC761431), MSA-2 (NSC828583), SN-011 (NSC837082), adavosertib (NSC754352), prexasertib (NSC758257), carboplatin (NSC241240) and oxaliplatin (NSC266046), were obtained from the National Cancer Institute (NCI) Developmental Therapeutics Program Chemical Repository (21). The FDA-approved anticancer drug set is available from the Developmental Therapeutics Program at https://dtp.cancer.gov/organization/dscb/obtaining/. […] The stock solutions were prepared in dimethyl sulfoxide (DMSO, Sigma-Aldrich, St. Louis, MO, cat. D2650), except for the platinum compounds which were prepared in saline (Quality Biological, Gaithersburg, MD, cat. 114-055-101), at 800-fold the tested concentration and stored at -70 degrees C prior to their use. All drugs and investigational agents were tested over a range starting from a high concentration at or near the clinical Cmax and decreasing in half-log increments. If the clinical Cmax for an agent had not been determined, the highest concentration tested was 10 microM, except for SN-38, which was tested at a high concentration of 1 microM.
Cell Culture. All cells were maintained in an incubator at 37 degrees C and 5% CO2 with 95% humidity. The PDC lines were cultured according to standard operating procedures established by the NCI PDMR (https://pdmr.cancer.gov). Table 3 of the manuscript, lists the cell lines along with the number of the three cell types plated to form the mct-spheroids and media for tumor cell growth. After thawing, all PDC lines, except 997537-175-T-J1-PDC and 415267-285-R-J2-PDC, were cultured in Matrigel-coated flasks prepared with a working solution of 1X Ham's F-12 nutrient mix, without supplementation (Thermo Fisher Scientific, cat. 11765054), 100 U/mL penicillin-streptomycin (Thermo Fisher Scientific, cat. 15140122), and 2.5% Matrigel (Corning Inc., Corning, NY, cat. 354248) for the first three passages. The two PDC lines 997537-175-T-J1-PDC and 415267-285-R-J2-PDC were cultured on uncoated flasks. The 857933-349-R-J2-PDC line was cultured in 6C/Colon 1B media containing advanced DMEM/F-12 (Thermo Fisher Scientific, cat. 12634028), 10 mM HEPES (Thermo Fisher Scientific, cat. 15630080), 1X GlutaMAX supplement (Thermo Fisher Scientific, cat. 35050061), 0.1 mg/mL primocin (InvivoGen, San Diego, CA, cat. ant-pm-2), 10% defined fetal bovine serum, heat inactivated (HyClone Laboratories Inc., Logan, UT, cat. SH30070.03HI), 50% L-WRN conditioned media (ATCC, cat. CRL-3276), 1.25 mM N-Acetyl-L-cysteine (Sigma-Aldrich, cat. A9165), 10 mM nicotinamide (Sigma-Aldrich, cat. N0636), 1X B-27 supplement (Thermo Fisher Scientific, cat. 17504044), 1X N-2 supplement (Thermo Fisher Scientific, cat. […]

[1] = second compound 0.0316 µM, first compound 0.0316 µM
[2] = second compound 0.0316 µM, first compound 0.1 µM
[3] = second compound 0.0316 µM, first compound 0.316 µM
[4] = second compound 0.0316 µM, first compound 1 µM
[5] = second compound 0.1 µM, first compound 0.0316 µM
[6] = second compound 0.1 µM, first compound 0.1 µM
[7] = second compound 0.1 µM, first compound 0.316 µM
[8] = second compound 0.1 µM, first compound 1 µM
[9] = second compound 0.316 µM, first compound 0.0316 µM
[10] = second compound 0.316 µM, first compound 0.1 µM
[11] = second compound 0.316 µM, first compound 0.316 µM
[12] = second compound 0.316 µM, first compound 1 µM
[13] = second compound 1 µM, first compound 0.0316 µM
[14] = second compound 1 µM, first compound 0.1 µM
[15] = second compound 1 µM, first compound 0.316 µM
[16] = second compound 1 µM, first compound 1 µM
[17] = second compound 3.16 µM, first compound 0.0316 µM
[18] = second compound 3.16 µM, first compound 0.1 µM
[19] = second compound 3.16 µM, first compound 0.316 µM
[20] = second compound 3.16 µM, first compound 1 µM
[21] = second compound 10 µM, first compound 0.0316 µM
[22] = second compound 10 µM, first compound 0.1 µM
[23] = second compound 10 µM, first compound 0.316 µM
[24] = second compound 10 µM, first compound 1 µM
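Further: spheroids exposed to drugs for one week before measurement.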
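Wherever viability, T/C is given: percent viability relative to DMSO vehicle control taken as 100%.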

C=CCn1c(=O)c2cnc(Nc3ccc(N4CCN(C)CC4)cc3)nc2n1-c1cccc(C(C)(C)O)n1 + COC1C(OC(N)=O)C(O)C(Oc2ccc3c(O)c(NC(=O)c4ccc(O)c(CC=C(C)C)c4)c(=O)oc3c2C)OC1(C)C
IC50 (second compound 0.0316 µM): > 1 µM | IC50 (second compound 0.1 µM): > 1 µM | IC50 (second compound 0.316 µM): > 1 µM | IC50 (second compound 1 µM): > 1 µM | IC50 (second compound 3.16 µM): > 1 µM | IC50 (second compound 10 µM): > 1 µM | viability, T/C (second compound 0.0316 µM, first compound 0.00316 µM): 89.1% | viability, T/C (second compound 0.0316 µM, first compound 0.01 µM): 99.6% | viability, T/C [1]: 99.6% | viability, T/C [2]: 112% | viability, T/C [3]: 95.1% | viability, T/C [4]: 74.4% | viability, T/C (second compound 0.1 µM, first compound 0.00316 µM): 116% | viability, T/C (second compound 0.1 µM, first compound 0.01 µM): 97.7% | viability, T/C [5]: 127% | viability, T/C [6]: 122% | viability, T/C [7]: 87.5% | viability, T/C [8]: 64.5% | viability, T/C (second compound 0.316 µM, first compound 0.00316 µM): 105% | viability, T/C (second compound 0.316 µM, first compound 0.01 µM): 99% | viability, T/C [9]: 101% | viability, T/C [10]: 98.6% | viability, T/C [11]: 115% | viability, T/C [12]: 60.5% | viability, T/C (second compound 1 µM, first compound 0.00316 µM): 111% | viability, T/C (second compound 1 µM, first compound 0.01 µM): 96.2% | viability, T/C [13]: 96.4% | viability, T/C [14]: 102% | viability, T/C [15]: 97.9% | viability, T/C [16]: 78.2% | viability, T/C (second compound 3.16 µM, first compound 0.00316 µM): 112% | viability, T/C (second compound 3.16 µM, first compound 0.01 µM): 103% | viability, T/C [17]: 94.9% | viability, T/C [18]: 107% | viability, T/C [19]: 95.3% | viability, T/C [20]: 69.6% | viability, T/C (second compound 10 µM, first compound 0.00316 µM): 104% | viability, T/C (second compound 10 µM, first compound 0.01 µM): 121% | viability, T/C [21]: 115% | viability, T/C [22]: 119% | viability, T/C [23]: 95.2% | viability, T/C [24]: 68.9%

CNCc1ccc(-c2[nH]c3cc(F)cc4c3c2CCNC4=O)cc1 + COC1C(OC(N)=O)C(O)C(Oc2ccc3c(O)c(NC(=O)c4ccc(O)c(CC=C(C)C)c4)c(=O)oc3c2C)OC1(C)C
IC50 (second compound 0.0316 µM): > 10 µM | IC50 (second compound 0.1 µM): > 10 µM | IC50 (second compound 0.316 µM): > 10 µM | IC50 (second compound 1 µM): > 10 µM | IC50 (second compound 3.16 µM): > 10 µM | IC50 (second compound 10 µM): > 10 µM | viability, T/C [1]: 99.5% | viability, T/C [2]: 98.7% | viability, T/C [3]: 102% | viability, T/C [4]: 117% | viability, T/C (second compound 0.0316 µM, first compound 3.16 µM): 114% | viability, T/C (second compound 0.0316 µM, first compound 10 µM): 103% | viability, T/C [5]: 114% | viability, T/C [6]: 106% | viability, T/C [7]: 102% | viability, T/C [8]: 107% | viability, T/C (second compound 0.1 µM, first compound 3.16 µM): 118% | viability, T/C (second compound 0.1 µM, first compound 10 µM): 133% | viability, T/C [9]: 91.6% | viability, T/C [10]: 94.9% | viability, T/C [11]: 98.7% | viability, T/C [12]: 105% | viability, T/C (second compound 0.316 µM, first compound 3.16 µM): 97.2% | viability, T/C (second compound 0.316 µM, first compound 10 µM): 116% | viability, T/C [13]: 91.8% | viability, T/C [14]: 105% | viability, T/C [15]: 105% | viability, T/C [16]: 117% | viability, T/C (second compound 1 µM, first compound 3.16 µM): 117% | viability, T/C (second compound 1 µM, first compound 10 µM): 115% | viability, T/C [17]: 113% | viability, T/C [18]: 90.9% | viability, T/C [19]: 95.4% | viability, T/C [20]: 118% | viability, T/C (second compound 3.16 µM, first compound 3.16 µM): 105% | viability, T/C (second compound 3.16 µM, first compound 10 µM): 111% | viability, T/C [21]: 113% | viability, T/C [22]: 104% | viability, T/C [23]: 111% | viability, T/C [24]: 106% | viability, T/C (second compound 10 µM, first compound 3.16 µM): 96.3% | viability, T/C (second compound 10 µM, first compound 10 µM): 100%

From PubChem BioAssay AID1963849 (Molecular Pharmacology Branch, DTP, NCI, 2024)
